Earlier results on three compounds are cited in patent US20040116411A1, “Combination HIV therapy including camptothecin” (priority 2000, published 2004).

For data set [1], the system named is rous sarcoma virus (RSV) promoter.
Another data set relates to HIV-1 LTR. To be noted: human CD4+ lymphocytic cell line RPMI 8402.
In data set [2] the test system is equine infectious anemia virus (EIAA). To be noted: chronically infected cells.
Data set [3] deals with human CD4+ lymphocytic cell line RPMI 8402. The following applies: at the concentration used.
The subject of data set [4] is Moloney murine leukemia virus (MMLV).
For data set [5], the system named is viral-associated topoisomerase I. To be noted: HIV infection of human H9 cells, in vitro.
The test system of another data set is HIV. To be noted: by disrupting gp41 conformational changes associated with membrane fusion.

With `CC[C@@]1(O)C(=O)OCc2c1cc1n(c2=O)Cc2cc3c(CN(C)C)c(O)ccc3nc2-1` [Topotecan], the antiviral effects result in the data set with HIV-1 (CPT-K5 cell line, PBMC acutely infected with clinical isolates, OM10.1 cells latently infected, activated by TNF-α) is “antiviral effects of topotecan were observed”. Besides, the “acute and chronic HIV-1 infections” value in the data set on HIV-1 (in vitro) is “inhibit”.

On to `CC[C@@]1(O)C(=O)OCc2c1cc1n(c2=O)Cc2cc3ccccc3nc2-1` [camptothecin, 20(S)-camptothecin], for which, in data set [1], the “promoter activity of rous sarcoma virus (RSV)” value is listed as “did not inhibit”. Also, in the data set with HIV-1 LTR, the “expression of downstream reporter gene under the control of HIV-1 LTR” value is “inhibitory effects”. In addition, the EIAA replication result in data set [2] was “inhibits”. Besides, in [3], the cell survival entry is “not significantly affected”. In addition, in data set [4], the MMLV replication result is on record as “inhibits”. Besides, the “expression of gro, a cellular gene” value in the data set on gro was “did not inhibit”. In addition, in data set [5], the “activity of the viral-associated topoisomerase I” value is on record as “significantly reduced”.

As for enfuvirtide, the infection in vitro entry in the data set on HIV is “inhibit infection in vitro”.
